From patent US9738634B2, “Heterocyclic amide compound and herbicide” (SYNGENTA PARTICIPATIONS AG, priority 2013, dated 2017)

Experiments:
Assay type in all cases: in vivo
Details in all cases: treatment dosage 320 g/ha
corn [1] = experiment: Test Example 4: foliar treatment, effect on crop; c: corn
Method in brief: (§1)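 Seeds are spot-sown into sterilized diluvial soil and covered with about 1.5 cm of soil. After 14 days' greenhouse growth at 25 to 30° C, plants are sprayed on stems and leaves with diluted emulsion at the stated g/ha rate, then scored at 3 weeks.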

soybean [2] = experiment: Test Example 3: soil treatment, effect on crop; d: soybean
Method in brief: (§2)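 Crop and weed responses were judged three weeks after a uniform surface spray of the water-diluted emulsion at the given g/ha rate. Seeds sat beneath about 1.5 cm of sterilized diluvial soil, and boxes stood in a greenhouse at 25 to 30° C.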

common wind-grass [3] = experiment: Test Example 4: weedkilling efficacy by foliar treatment; J: common wind-grass
Method in brief: as §1

wheat [4] = experiment: Test Example 4: foliar treatment, effect on crop; e: wheat
Method in brief: as §1

wheat [5] = experiment: Test Example 3: soil treatment, effect on crop; e: wheat
Method in brief: as §2

crabgrass [6] = experiment: Test Example 4: weedkilling efficacy by foliar treatment; D: crabgrass
Method in brief: as §1

soybean [7] = experiment: Test Example 4: foliar treatment, effect on crop; d: soybean
Method in brief: as §1

wild oat [8] = experiment: Test Example 3: weedkilling efficacy through soil treatment; G: wild oat
Method in brief: as §2

chickweed [9] = experiment: Test Example 4: weedkilling efficacy by foliar treatment; N: chickweed
Method in brief: as §1

beet [10] = experiment: Test Example 3: soil treatment, effect on crop; f: beet
Method in brief: as §2

wild oat [11] = experiment: Test Example 4: weedkilling efficacy by foliar treatment; G: wild oat
Method in brief: as §1

common wind-grass [12] = experiment: Test Example 3: weedkilling efficacy through soil treatment; J: common wind-grass
Method in brief: as §2

barnyard grass [13] = experiment: Test Example 1: weedkilling efficacy, preemergent weed treatment in the submerged state; A: barnyard grass
Method in brief: (§3)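 Emulsion diluted with water to the specified per-hectare dosage is applied onto flood water (4 cm) over alluvial soil on the sowing day, with barnyard grass, bulrush and pondweed seeded and rice (2.5-leaf) transplanted; plants grow at 25–30 °C and are rated at 3 weeks.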

redroot pigweed [14] = experiment: Test Example 4: weedkilling efficacy by foliar treatment; L: redroot pigweed
Method in brief: as §1

Italian ryegrass [15] = experiment: Test Example 3: weedkilling efficacy through soil treatment; I: Italian ryegrass
Method in brief: as §2

barnyard grass [16] = experiment: Test Example 3: weedkilling efficacy through soil treatment; F: barnyard grass
Method in brief: as §2

black-grass [17] = experiment: Test Example 3: weedkilling efficacy through soil treatment; H: black-grass
Method in brief: as §2

green foxtail [18] = experiment: Test Example 3: weedkilling efficacy through soil treatment; E: green foxtail
Method in brief: as §2

rapeseed [19] = experiment: Test Example 3: soil treatment, effect on crop; g: rapeseed
Method in brief: as §2

beet [20] = experiment: Test Example 4: foliar treatment, effect on crop; f: beet
Method in brief: as §1

rapeseed [21] = experiment: Test Example 4: foliar treatment, effect on crop; g: rapeseed
Method in brief: as §1

green foxtail [22] = experiment: Test Example 4: weedkilling efficacy by foliar treatment; E: green foxtail
Method in brief: as §1

bulrush [23] = experiment: Test Example 2: weedkilling efficacy, growth period weed treatment in the submerged state; B: bulrush
Method in brief: (§4)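 First, alluvial soil in pots is flooded to 4 cm and mixed seed is sown. Next, plants grow in a greenhouse at 25 to 30° C until the 1-2 leaf stage. Then diluted emulsion is applied onto the water surface at the given g/ha rate, and injury is assessed after 3 weeks.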

corn [24] = experiment: Test Example 3: soil treatment, effect on crop; c: corn
Method in brief: as §2

oval-leafed pondweed [25] = experiment: Test Example 1: weedkilling efficacy, preemergent weed treatment in the submerged state; C: oval-leafed pondweed
Method in brief: as §3

black-grass [26] = experiment: Test Example 4: weedkilling efficacy by foliar treatment; H: black-grass
Method in brief: as §1

redroot pigweed [27] = experiment: Test Example 3: weedkilling efficacy through soil treatment; L: redroot pigweed
Method in brief: as §2

catchweed [28] = experiment: Test Example 4: weedkilling efficacy by foliar treatment; O: catchweed
Method in brief: as §1

barnyard grass [29] = experiment: Test Example 2: weedkilling efficacy, growth period weed treatment in the submerged state; A: barnyard grass
Method in brief: as §4

barnyard grass [30] = experiment: Test Example 4: weedkilling efficacy by foliar treatment; F: barnyard grass
Method in brief: as §1

directly sown rice [31] = experiment: Test Example 3: soil treatment, effect on crop; b: directly sown rice
Method in brief: as §2

birds-eye speedwell [32] = experiment: Test Example 3: weedkilling efficacy through soil treatment; p: birds-eye speedwell
Method in brief: as §2

Indian mallow [33] = experiment: Test Example 3: weedkilling efficacy through soil treatment; K: Indian mallow
Method in brief: as §2

Italian ryegrass [34] = experiment: Test Example 4: weedkilling efficacy by foliar treatment; I: Italian ryegrass
Method in brief: as §1

transplanted rice = experiment: Test Example 1: preemergent weed treatment in the submerged state, effect on crop; a: transplanted rice
Method in brief: as §3

chickweed [35] = experiment: Test Example 3: weedkilling efficacy through soil treatment; N: chickweed
Method in brief: as §2

oval-leafed pondweed [36] = experiment: Test Example 2: weedkilling efficacy, growth period weed treatment in the submerged state; C: oval-leafed pondweed
Method in brief: as §4

Indian mallow [37] = experiment: Test Example 4: weedkilling efficacy by foliar treatment; K: Indian mallow
Method in brief: as §1

birds-eye speedwell [38] = experiment: Test Example 4: weedkilling efficacy by foliar treatment; p: birds-eye speedwell
Method in brief: as §1

fig-leafed goosefoot = experiment: Test Example 3: weedkilling efficacy through soil treatment; M: fig-leafed goosefoot
Method in brief: as §2

crabgrass [39] = experiment: Test Example 3: weedkilling efficacy through soil treatment; D: crabgrass
Method in brief: as §2

directly sown rice [40] = experiment: Test Example 4: foliar treatment, effect on crop; b: directly sown rice
Method in brief: as §1

catchweed [41] = experiment: Test Example 3: weedkilling efficacy through soil treatment; O: catchweed
Method in brief: as §2

bulrush [42] = experiment: Test Example 1: weedkilling efficacy, preemergent weed treatment in the submerged state; B: bulrush
Method in brief: as §3

SMILES: COc1cc(Cl)cc(NC(=O)C(C)(C)N2COC(C)=C(c3ccccc3)C2=O)n1 [B-2-46]
- c (corn) effect on crop grade (corn [1]): 1 (weed kill ratio 5% or more, less than 20%)
- d (soybean) effect on crop grade (soybean [2]): 0 (weed kill ratio 5% or less (practically no effect))
- J (common wind-grass) weedkilling efficacy grade (common wind-grass [3]): 5 (weed kill ratio 90% or more, (practically complete withering))
- e (wheat) effect on crop grade (wheat [4]): 0 (weed kill ratio 5% or less (practically no effect))
- e (wheat) effect on crop grade (wheat [5]): 0 (weed kill ratio 5% or less (practically no effect))
- D (crabgrass) weedkilling efficacy grade (crabgrass [6]): 4 (weed kill ratio 70% or more, less than 90%)
- d (soybean) effect on crop grade (soybean [7]): 0 (weed kill ratio 5% or less (practically no effect))
- G (wild oat) weedkilling efficacy grade (wild oat [8]): 3 (weed kill ratio 40% or more, less than 70%)
- N (chickweed) weedkilling efficacy grade (chickweed [9]): 2 (weed kill ratio 20% or more, less than 40%)
- f (beet) effect on crop grade (beet [10]): 4 (weed kill ratio 70% or more, less than 90%)
- G (wild oat) weedkilling efficacy grade (wild oat [11]): 3 (weed kill ratio 40% or more, less than 70%)
- J (common wind-grass) weedkilling efficacy grade (common wind-grass [12]): 5 (weed kill ratio 90% or more, (practically complete withering))
- A (barnyard grass) weedkilling efficacy grade (barnyard grass [13]): 5 (weed kill ratio 90% or more, (practically complete withering))
- L (redroot pigweed) weedkilling efficacy grade (redroot pigweed [14]): 0 (weed kill ratio 5% or less (practically no effect))
- I (Italian ryegrass) weedkilling efficacy grade (Italian ryegrass [15]): 5 (weed kill ratio 90% or more, (practically complete withering))
- F (barnyard grass) weedkilling efficacy grade (barnyard grass [16]): 5 (weed kill ratio 90% or more, (practically complete withering))
- H (black-grass) weedkilling efficacy grade (black-grass [17]): 5 (weed kill ratio 90% or more, (practically complete withering))
- E (green foxtail) weedkilling efficacy grade (green foxtail [18]): 5 (weed kill ratio 90% or more, (practically complete withering))
- g (rapeseed) effect on crop grade (rapeseed [19]): 4 (weed kill ratio 70% or more, less than 90%)
- f (beet) effect on crop grade (beet [20]): 4 (weed kill ratio 70% or more, less than 90%)
- g (rapeseed) effect on crop grade (rapeseed [21]): 4 (weed kill ratio 70% or more, less than 90%)
- E (green foxtail) weedkilling efficacy grade (green foxtail [22]): 5 (weed kill ratio 90% or more, (practically complete withering))
- B (bulrush) weedkilling efficacy grade (bulrush [23]): 5 (weed kill ratio 90% or more, (practically complete withering))
- c (corn) effect on crop grade (corn [24]): 1 (weed kill ratio 5% or more, less than 20%)
- C (oval-leafed pondweed) weedkilling efficacy grade (oval-leafed pondweed [25]): 5 (weed kill ratio 90% or more, (practically complete withering))
- H (black-grass) weedkilling efficacy grade (black-grass [26]): 4 (weed kill ratio 70% or more, less than 90%)
- L (redroot pigweed) weedkilling efficacy grade (redroot pigweed [27]): 4 (weed kill ratio 70% or more, less than 90%)
- O (catchweed) weedkilling efficacy grade (catchweed [28]): 4 (weed kill ratio 70% or more, less than 90%)
- A (barnyard grass) weedkilling efficacy grade (barnyard grass [29]): 5 (weed kill ratio 90% or more, (practically complete withering))
- F (barnyard grass) weedkilling efficacy grade (barnyard grass [30]): 4 (weed kill ratio 70% or more, less than 90%)
- b (directly sown rice) effect on crop grade (directly sown rice [31]): 4 (weed kill ratio 70% or more, less than 90%)
- P (birds-eye speedwell) weedkilling efficacy grade (birds-eye speedwell [32]): 5 (weed kill ratio 90% or more, (practically complete withering))
- K (Indian mallow) weedkilling efficacy grade (Indian mallow [33]): 3 (weed kill ratio 40% or more, less than 70%)
- I (Italian ryegrass) weedkilling efficacy grade (Italian ryegrass [34]): 4 (weed kill ratio 70% or more, less than 90%)
- a (transplanted rice) effect on crop grade (transplanted rice): 0 (weed kill ratio 5% or less (practically no effect))
- N (chickweed) weedkilling efficacy grade (chickweed [35]): 4 (weed kill ratio 70% or more, less than 90%)
- C (oval-leafed pondweed) weedkilling efficacy grade (oval-leafed pondweed [36]): 5 (weed kill ratio 90% or more, (practically complete withering))
- K (Indian mallow) weedkilling efficacy grade (Indian mallow [37]): 3 (weed kill ratio 40% or more, less than 70%)
- P (birds-eye speedwell) weedkilling efficacy grade (birds-eye speedwell [38]): 4 (weed kill ratio 70% or more, less than 90%)
- M (fig-leafed goosefoot) weedkilling efficacy grade (fig-leafed goosefoot): 4 (weed kill ratio 70% or more, less than 90%)
- D (crabgrass) weedkilling efficacy grade (crabgrass [39]): 5 (weed kill ratio 90% or more, (practically complete withering))
- b (directly sown rice) effect on crop grade (directly sown rice [40]): 3 (weed kill ratio 40% or more, less than 70%)
- O (catchweed) weedkilling efficacy grade (catchweed [41]): 4 (weed kill ratio 70% or more, less than 90%)
- B (bulrush) weedkilling efficacy grade (bulrush [42]): 5 (weed kill ratio 90% or more, (practically complete withering))
